Measurements from patent US9657147B2, “Method for preparing glycolide polyester by ring opening polymerization” (TEKNOLOGIAN TUTKIMUSKESKUS VTT OY, priority 2011, dated 2017).

Test: Test of solubility of the starting materials and homopolyglycolide in organic solvents
From the text: A solvent which could be used in the ring opening polymerization should meet criteria: i) the solvent should be good enough to dissolve all starting materials including monomer (glycolide), co-monomer, initiator, catalyst and dispersion stabilizer, and ii) it should not dissolve resulting polymer (homopolyglycolide and co-polymers).

O=C1COC(=O)CO1 [Glycolide]
solution concentration permitted in acetonitrile (solvent acetonitrile): 50 wt-%
solubility in Toluene (solvent toluene): bad
